Experimental data reported in ChEMBL document CHEMBL1142043, “Potent and selective [2-imidazol-1-yl-2-(6-alkoxy-naphthalen-2-yl)-1-methyl-ethyl]-dimethyl-amines as retinoic acid metabolic blocking agents (RAMBAs)” (Bioorg Med Chem Lett, 2005).

Key:
[1] = biological target: T1, Cytochrome P450 26A1 (Homo sapiens, UniProt O43174); test: Potency towards cytochrome P 450 26 enzyme activity
T1 sequence (O43174 whole entry): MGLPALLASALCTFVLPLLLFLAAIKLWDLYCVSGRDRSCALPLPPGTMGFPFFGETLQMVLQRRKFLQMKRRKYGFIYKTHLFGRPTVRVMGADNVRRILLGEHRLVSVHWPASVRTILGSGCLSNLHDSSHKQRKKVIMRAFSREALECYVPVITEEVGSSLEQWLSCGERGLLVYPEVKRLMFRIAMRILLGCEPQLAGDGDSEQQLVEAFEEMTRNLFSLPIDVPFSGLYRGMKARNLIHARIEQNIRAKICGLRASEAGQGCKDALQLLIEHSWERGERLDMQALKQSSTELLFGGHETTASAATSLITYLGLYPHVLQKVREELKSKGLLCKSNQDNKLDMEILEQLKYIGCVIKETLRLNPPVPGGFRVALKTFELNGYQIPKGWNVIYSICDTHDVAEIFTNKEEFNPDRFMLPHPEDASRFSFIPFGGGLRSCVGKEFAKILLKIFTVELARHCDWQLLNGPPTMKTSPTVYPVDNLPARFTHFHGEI

[2] = Potency towards AT 6.1 cell; format: functional, Rattus norvegicus
[3] = test system: Rattus norvegicus; test: Potency (30 mg/kg, bid) was determined towards AT 6.1 cell; format: organism-based
[4] = test system: T47D; test: Potency towards T47D cell; Inactive at 1 uM; format: functional
[5] = Potency towards AT 6.1 cell; Inactive at 250 nM; format: functional, Rattus norvegicus
[6] = test system: T47D; test: Potency towards T47D cell; format: functional, cell-based, Rattus norvegicus; details: Homo sapiens

| Compound | IC50 [1] [nM] | further results |
| --- | --- | --- |
| CC(C(c1ccc2cc(OCc3cccc(C(=O)O)c3)ccc2c1)n1ccnc1)N(C)C (stereo in doubt; syn) | 3.5 |  |
| COC(=O)c1cccc(COc2ccc3cc(C(C(C)N(C)C)n4ccnc4)ccc3c2)c1 (stereo in doubt; anti) | 18 |  |
| CC(C(c1ccc2cc(OCc3ccc(C(=O)O)cc3)ccc2c1)n1ccnc1)N(C)C (stereo in doubt; anti) | 12 |  |
| CC(C(c1ccc2cc(OCc3ccc(OC(C)(C)C)cc3)ccc2c1)n1ccnc1)N(C)C (stereo in doubt; syn) | 34 |  |
| CC(C(c1ccc2cc(OCC(C)(C)C(=O)N(C)C)ccc2c1)n1ccnc1)N(C)C (stereo unspecified) |  | IC50 [2]: 250 nM |
| CC(C(c1ccc2cc(OCc3ccc(CC(=O)O)cc3)ccc2c1)n1ccnc1)N(C)C (stereo unspecified) | 25 |  |
| Clc1cccc(C(c2ccc3[nH]cnc3c2)n2ccnc2)c1 (stereo unspecified) |  | inhibition [3]: 90% |
| COC(=O)COc1ccc(COc2ccc3cc(C(C(C)N(C)C)n4ccnc4)ccc3c2)cc1 (stereo in doubt; syn) | 19 |  |
| CC(C(c1ccc2cc(OCC(=O)O)ccc2c1)n1ccnc1)N(C)C (stereo unspecified) | 335 |  |
| CC(C(c1ccc2cc(OCc3cccc(C(N)=O)c3)ccc2c1)n1ccnc1)N(C)C (stereo unspecified) |  | IC50 [4]: Inactive at 1 uM; IC50 [5]: Inactive at 1 uM |
| CC(C(c1ccc2cc(OCc3ccc(C(=O)O)cc3)ccc2c1)n1ccnc1)N(C)C (stereo in doubt; syn) | 3.3 | IC50 [6]: < 100 nM; IC50 [2]: < 100 nM |
| COC(=O)c1ccc(COc2ccc3cc(C(C(C)N(C)C)n4ccnc4)ccc3c2)cc1 (stereo in doubt; syn) | 16 |  |
| CC(C(c1ccc2cc(OCc3ccc(OCC(=O)O)cc3)ccc2c1)n1ccnc1)N(C)C (stereo unspecified) | 8 |  |
| CC(C(c1ccc2cc(OCC(C)(C)C(=O)O)ccc2c1)n1ccnc1)N(C)C (stereo unspecified) |  | IC50 [6]: 125 nM; IC50 [2]: 300 nM |
| COC(=O)c1ccc(COc2ccc3cc(C(C(C)N(C)C)n4ccnc4)ccc3c2)cc1 (stereo in doubt; anti) | 85 |  |
| CC(C(c1ccc2cc(OCc3cccc(C(=O)N(C)C)c3)ccc2c1)n1ccnc1)N(C)C (stereo unspecified) | 14.4 | IC50 [4]: Inactive at 1 uM |
| CNC(=O)c1cccc(COc2ccc3cc(C(C(C)N(C)C)n4ccnc4)ccc3c2)c1 (stereo unspecified) | 37 | IC50 [4]: Inactive at 1 uM; IC50 [2]: 250 nM |
| CC(C(c1ccc2cc(OCc3ccc(C#N)cc3)ccc2c1)n1ccnc1)N(C)C (stereo in doubt; anti) | 71 |  |
| COC(=O)c1cccc(COc2ccc3cc(C(C(C)N(C)C)n4ccnc4)ccc3c2)c1 (stereo in doubt; syn) | 7 |  |
| COC(=O)COc1ccc(COc2ccc3cc(C(C(C)N(C)C)n4ccnc4)ccc3c2)cc1 (stereo in doubt; anti) | 153 |  |
| CC(C(c1ccc2cc(OCC(C)(C)C(N)=O)ccc2c1)n1ccnc1)N(C)C (stereo unspecified) | 47 | IC50 [5]: Inactive at 250 nM; IC50 [6]: 250 nM |
| CC(C(c1ccc2cc(OCc3cccc(C(=O)O)c3)ccc2c1)n1ccnc1)N(C)C (stereo in doubt; anti) | 6.3 |  |
| CC(C(c1ccc2cc(OCc3ccc(C#N)cc3)ccc2c1)n1ccnc1)N(C)C (stereo in doubt; syn) | 6 |  |
| CNC(=O)C(C)(C)COc1ccc2cc(C(C(C)N(C)C)n3ccnc3)ccc2c1 (stereo unspecified) | 54 | IC50 [4]: Inactive at 1 uM; IC50 [5]: Inactive at 1 uM |
| CC(C(c1ccc2cc(OCc3ccc(OC(C)(C)C)cc3)ccc2c1)n1ccnc1)N(C)C (stereo in doubt; anti) | 86 |  |
